Where two headings read alike, the source gives them in different places.
System: CS6 expressing bacteria
Method: These inactivated bacteria were then used for oral immunizations of mice.
The suspensions were incubated for 2 h at 37° C. with shaking at 60 rpm, and then kept at 4° C. for 3 days without agitation. The bacterial suspensions were then centrifuged, washed, and re-suspended in the same volume of PBS and kept at 4° C. until use. In both inactivation methods, 0.1 ml of each suspension was spread onto blood agar and incubated at 37° C. for up to one week to check for lack of growth. Before being used for oral immunization, the level of CS6 on the inactivated bacteria was checked by inhibition ELISA.

Oc1ccccc1 [phenol]
killing of the bacteria (0.25% phenol): did not result in complete killing of the bacteria | killing of the bacteria (0.5% phenol, data not shown): killed the tested bacteria

Reference: patent publication US12473333B2, “Method for increasing ETEC CS6 antigen presentation on cell surface and products obtainable thereof” (Scandinavian Biopharma Holding AB, priority 2011, dated 2025)
